# Where two headings read alike, the source gives them in different places.
# Assays:
# human STING = biological target: T1, human STING (Homo sapiens, UniProt Q86WV6); assay: surface plasmon resonance (SPR)-based hSTING binding assay; conditions: for kon: read-out: Ka; for Kd: KD = Kd/Ka
# T1 construct: N-terminal cysteine (thiol coupling handle)
# Description: Direct measurement of affinity constants provide assistance in pharmacokinetic and pharmacodynamic studies. In this study, we evaluated the binding affinities between human STING and the synthesized CNDs by the surface plasmon resonance (SPR)-based assay, which loaded minuscule amounts of STING protein on a biosensor chip, and free-labeled samples were directly detected in short measurement times.
# hSTING was firstly immobilized on a CM5 sensor chip via a N-terminal cysteine thiol group, without altering conformation or binding activity. […] Kinetic parameters generally give both an aggregation constant (ka) and a disaggregation constant (kd), from which the equilibrium dissociation constant KD can be calculated by KD = Kd/Ka.
# SPR system was primed using the manufacturer’s HEPES-buffered saline at 25 °C. CM5 chips were warmed to room temperature on the bench before being added to the system. SPR surfaces were cleaned and conditioned (separate injections of 50 mM NaOH, 1 M NaCl, 0.1% SDS and 10 mM HCl, each for 60 s at 10 μL/min) prior to normalization using the manufacturer’s 70% glycerol solution (GE Healthcare). STING was prepared at 100 μg/mL in SPR running buffer with no DMSO and injected twice onto channel 2 for 600 s at 5 μL/min.
# Cyclic dinucleotides were prepared to 1-mM stocks in SPR running buffer. A 12-concentrations dilution series, including a blank containing no substrate, were made and diluted in a 96-well polypropylene Greiner plate. Plates were spun and then placed at 4 °C until experimentation. Experiments were performed at 60 μL/min with data collected every 0.1s.
# THP-1 cells = assay: IFN-β production in THP-1 cells by ELISA; conditions: 1 μM, 18 h
# Description: The IFN-β levels in the cell culture supernatants were measured using the ELISA kits (Meimian Biotechnology, Jiangsu, China), according to the manufacturer’s instructions.
# [1] = SPR, hSTING immobilized on CM5 chip, 25 °C
# T1 sequence (Q86WV6 whole entry): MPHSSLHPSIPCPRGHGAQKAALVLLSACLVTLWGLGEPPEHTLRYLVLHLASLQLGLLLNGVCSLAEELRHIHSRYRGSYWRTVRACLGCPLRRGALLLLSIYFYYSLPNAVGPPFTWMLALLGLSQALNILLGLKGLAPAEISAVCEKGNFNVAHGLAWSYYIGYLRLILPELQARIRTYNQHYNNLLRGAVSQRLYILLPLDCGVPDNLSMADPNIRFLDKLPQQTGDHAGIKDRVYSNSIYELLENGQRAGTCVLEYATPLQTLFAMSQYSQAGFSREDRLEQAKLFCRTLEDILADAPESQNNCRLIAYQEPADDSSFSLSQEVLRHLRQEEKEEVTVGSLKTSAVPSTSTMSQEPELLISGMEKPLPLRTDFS
SMILES,dissociation rate constant koff (human STING; [1]) [s⁻¹],kon (human STING; [1]) [M⁻¹ s⁻¹],Kd (human STING; SPR) [µM],production of IFN-β (ELISA) (THP-1 cells),kon (human STING) [M⁻¹ s⁻¹]
"Cc1cn([C@@H]2O[C@@H]3COP(=O)(O)O[C@@H]4[C@H](O)[C@@H](COP(=O)(O)O[C@H]3[C@H]2O)O[C@H]4n2cnc3c(=O)[nH]c(N)nc32)c(=O)[nH]c1=O [Compound 8a, 2′,3′-cyclic-guanosine-5-methyluridine]",0.002649,349,7.58,–,–
"Cc1cn([C@@H]2O[C@@H]3COP(O)(=S)O[C@@H]4[C@H](O)[C@@H](COP(O)(=S)O[C@H]3[C@H]2O)O[C@H]4n2cnc3c(=O)[nH]c(N)nc32)c(=O)[nH]c1=O (stereo partly shown) [Compound 8b, 2′,3′-cyclic-guanosine(PS)-5-methyluridine(PS)]",0.0001339,–,–,more IFN-β than the corresponding phosphodiester analogs,233
"Cc1cn(C2OC3COP(=O)(O)OC4C(O)C(COP(=O)(O)OC3C2O)OC4n2cnc3c(=O)[nH]c(N)nc32)c(=O)nc1N (stereo not shown) [Compound 8c, 2′,3′-cyclic-guanosine-5-methylcytidine]",1.397e-05,152,0.092,–,–
"Cc1cn([C@@H]2O[C@@H]3COP(=O)(O)O[C@H]4[C@@H](O)[C@H](n5cnc6c(N)ncnc65)O[C@@H]4COP(=O)(O)O[C@@H]2[C@@H]3O)c(=O)[nH]c1=O [Compound 12a, 2′,3′-cyclic-5-methyluridine-adenosine]",0.002431,208,11.7,–,–
"Cc1cn([C@@H]2O[C@@H]3COP(O)(=S)O[C@H]4[C@@H](O)[C@H](n5cnc6c(N)ncnc65)O[C@@H]4COP(O)(=S)O[C@@H]2[C@@H]3O)c(=O)[nH]c1=O (stereo partly shown) [Compound 12b, 2′,3′-cyclic-5-methyluridine(PS)-adenosine(PS)]",0.0009865,289,3.41,more IFN-β than the corresponding phosphodiester analogs,–
"Cc1cn([C@@H]2O[C@@H]3COP(=O)(O)O[C@H]4[C@@H](O)[C@H](n5cnc6c(N)ncnc65)O[C@@H]4COP(=O)(O)O[C@@H]2[C@@H]3O)c(=O)nc1N [Compound 12c, 2′,3′-cyclic-5-methylcytidine-adenosine]",0.0007331,198,3.7,–,–

# — PMC7697705, “Design, Synthesis and Biological Evaluation of (2′,5′ and 3′5′-Linked) cGAMP Analogs that Activate Stimulator of Interferon Genes (STING)” (Molecules, 2020)
